In patent US6680336B2, “Cyclic AMP-specific phosphodiesterase inhibitors” (ICOS Corporation, priority 1999, dated 2004):

Tests used:
[1] = system: TNFα secretion in human peripheral blood lymphocytes; assay: Lipopolysaccharide-stimulated TNFα release from human peripheral blood lymphocytes; format: cell-based; details: Lymphocyte; LPS-stimulated TNFα release from human PBL
Protocol: The compounds of structural formula (II) also were tested for an ability to reduce TNFα secretion in human peripheral blood lymphocytes. The ability to reduce TNFα secretion is related to the EC50 values i.e., the effective concentration pf the compound capable of inhibiting 50% of the total TNFα).
To assess the ability of a compound to reduce TNFα secretion in human peripheral blood lymphocytes (PBL), the following tests were performed.
Heparinized blood (approximately 30 mL) drawn from human volunteers was mixed 1:1 with Dulbecco's modified phosphate-buffered saline. This mixture was mixed 1:1 with HISTOPAQUE® and centrifuged at 1,500 rpm at room temperature without braking in the swinging bucket of a Beckman model TJ6 centrifuge. Erythrocytes were centrifuged to the bottom of the tubes, and serum remained at the surface of the tubes. A layer containing lymphocytes sedimented between the serum and HISTOPAQUE® layers, and was removed by aspiration to a fresh tube. The cells were quantified and adjusted to […] and a 100 μL aliquot is placed into the wells of a 96 well plate. Test compounds and RPMI media (Gibco/BRL Life Sciences) are added to each of the wells 15 minutes prior to addition of bacterial LPS ([…]). The mixture was allowed to incubate for 20 hours at 37° C. in a humidified chamber. The cells then were separated by centrifuging at 800 rpm for 5 minutes at room temperature. An aliquot of 180 μL of supernatant was transferred to a new plate for determination of TNFα concentration. TNFα protein in the cell supernatant fluids was measured using a commercially available enzyme-linked immunosorbent assay (ELISA) (CYTOSCREEN® Immunoassay Kit from Biosource International).
The cell-based assay provided the following results for various pyrrolidine compounds of the present invention. The EC50 values (i.e., effective concentration of the compound capable of inhibiting 50% of the total TNFα) illustrate the ability of the present compounds to inhibit LPS-stimulated TNFα release from human PBL.

recombinant human PDE4 = target: T1, recombinant human PDE4; assay: PDE4 inhibition, charcoal separation [32P]cAMP phosphodiesterase assay; format: biochemical
T1 construct: PDE4 IC50; other: human recombinant PDE4
Protocol: The compounds of structural formula (II) were tested for an ability to inhibit PDE4. The ability of a compound to inhibit PDE4 activity is related to the IC50 value for the compound, i.e., the concentration of inhibitor required for 50% inhibition of enzyme activity. The IC50 value for compounds of structural formula (II) were determined using recombinant human PDE4.
Recombinant production of human PDE1B, PDE2, PDE4A, PDE4B, PDE4C, PDE4D, PDE5, and PDE7 was carried out similarly to that described in Example 7 of U.S. Pat. No. 5,702,936, incorporated herein by reference, except that the yeast transformation vector employed, which is derived from the basic ADH2 plasmid described in Price et al., Methods in Enzymology, 185, pp. 308-318 (1990), incorporated yeast ADH2 promoter and terminator sequences and the Saccharomyces cerevisiae host was the protease-deficient strain BJ2-54 deposited on Aug. 31, 1998 with the American Type Culture Collection, Manassas, Va., under accession number ATCC 74465. Transformed host cells were grown in 2×SC-leu medium, pH 6.2, with trace metals, and vitamins. After 24 hours, YEP medium-containing glycerol was added to a final concentration of 2×YET/3% glycerol. Approximately 24 hr later, cells were harvested, washed, and stored at −70° C.
Phosphodiesterase activity of the preparations was determined as follows. PDE assays utilizing a charcoal separation technique were performed essentially as described in Loughney et al. (1996). In this assay, PDE activity converts [32P]cAMP or [32P]cGMP to the corresponding [32P]5′-AMP or [32P]5′-GMP in proportion to the amount of PDE activity present. The [32P]5′-AMP or [32P]5′-GMP then was quantitatively converted to free [32P]phosphate and unlabeled adenosine or guanosine by the action of snake venom 5′-nucleotidase. […] The assay was performed at 30° C. in a 100 μL reaction mixture containing (final concentrations) 40 mM Tris HCl (pH 8.0), 1 μM ZnSO4, 5 mM MgCl2, and 0.1 mg/mL bovine serum albumin (BSA). Alternatively, in assays assessing PDE1-specific activity, incubation mixtures further incorporated the use of 0.1 mM CaCl2 and 10 μg/mL calmodulin. PDE enzyme was present in quantities that yield <30% total hydrolysis of substrate (linear assay conditions). The assay was initiated by addition of substrate (1 mM [32P]cAMP or cGMP), and the mixture was incubated for 12 minutes. Seventy-five (75) μg of Crotalus atrox venom then was added, and the incubation was continued for 3 minutes (15 minutes total). The reaction was stopped by addition of 200 μL of activated charcoal (25 mg/mL suspension in 0.1 M […], pH 4). After centrifugation (750×g for 3 minutes) to sediment the charcoal, a sample of the supernatant was taken for radioactivity determination in a scintillation counter and the PDE activity was calculated.
Inhibitor analyses were performed similarly to the method described in Loughney et al., J. Biol. Chem., 271, pp. 796-806 (1996), except both cGMP and cAMP were used, and substrate concentrations were kept below 32 nM, which is far below the Km of the tested PDEs.

Work on `COC(=O)N1C[C@@H](c2ccc(OC)c(OC3CCCC3)c2)[C@](C)(CNCc2ccccc2)C1` [Example 1, Methyl (4S,3R)-4-(3-cyclopentyloxy-4-methoxyphenyl)-3-methyl-3-{[benzylamino]methyl]}pyrrolidine carboxylate] yielded an EC50 [1] of 776 nM and an IC50 (recombinant human PDE4) of 1400 nM.

`COC(=O)N1C[C@@H](c2ccc(OC)c(OC3CCCC3)c2)[C@](C)(CN)C1` [Example 2, Methyl (4S,3R)-3-(aminomethyl)-4-(3-cyclopentyloxy-4-methoxyphenyl)-3-methylpyrrolidinecarboxylate] gave an EC50 [1] of 142 nM and an IC50 (recombinant human PDE4) of 28.5 nM.

In the case of `COC(=O)N1CC(c2ccc(OC)c(OC3CCCC3)c2)[C@](C)(CNS(C)(=O)=O)C1` (stereo partly drawn) [Example 3], the IC50 (recombinant human PDE4) is reported as 3180 nM.

With `COC(=O)N1C[C@@H](c2ccc(OC)c(OC3CCCC3)c2)[C@](C)(CNC(C)=O)C1` [Example 4, Methyl (4S,3R)-3-[(acetylamino)methyl]-4-(3-cyclopentyloxy-4-methoxyphenyl)-3-methylpyrrolidine-carboxylate] the IC50 (recombinant human PDE4) was 3090 nM.

Work on `COC(=O)N1C[C@@H](c2ccc(OC)c(OC3CCCC3)c2)[C@](C)(CNC(=O)c2ccccc2)C1` [Example 5, Methyl (4S,3R)-4-(3-cyclopentyloxy-4-methoxyphenyl)-3-methyl-3-[(phenylcarbonylamino)methyl]pyrrolidinecarboxylate] yielded an IC50 (recombinant human PDE4) of 2510 nM.

With `COC(=O)N1CC(c2ccc(OC)c(OC3CCCC3)c2)[C@](C)(CNS(=O)(=O)c2ccccc2)C1` (stereo partly drawn) [Example 6] the EC50 [1] was 730 nM and the IC50 (recombinant human PDE4) was 506 nM.

For `COc1ccc([C@@H]2CN(Cc3ccccc3)C[C@@]2(C)C(C)N)cc1OC1CCCC1` (stereo partly drawn) [Example 8, 1-[(3S,4S)-4-(3-Cyclopentyloxy-4-methoxyphenyl)-3-methyl-1-benzylpyrrolidin-3-yl]ethylamine], the EC50 [1] was 1560 nM and the IC50 (recombinant human PDE4) was 673 nM.

In the case of `COc1ccc([C@@H]2CN(Cc3ccccc3)C[C@@]2(C)C(C)NC(=O)c2ccccc2)cc1OC1CCCC1` (stereo partly drawn) [Example 10, N-{1-[(3S,4S)-4-(3-Cyclopentyloxy-4-methoxyphenyl)-3-methyl-1-benzylpyrrolidin-3-yl]ethyl}benzamide], the IC50 (recombinant human PDE4) is reported as 2950 nM.

With `COc1ccc([C@@H]2CN(Cc3ccccc3)C[C@@]2(C)C(C)NC(=O)c2ccccc2)cc1OC1CCCC1` (stereo partly drawn) [Example 11, N-{1-[(3S,4S)-4-(3-Cyclopentyloxy-4-methoxyphenyl)-3-methyl-1-benzylpyrrolidin-3-yl]ethyl}benzamide] the IC50 (recombinant human PDE4) was 27100 nM.

Work on `COc1ccc([C@@H]2CN(Cc3ccccc3)C[C@@]2(C)C(C)NC(C)=O)cc1OC1CCCC1` (stereo partly drawn) [Example 12, N-{1-[(3S,4S)-4-(3-Cyclopentyloxy-4-methoxyphenyl)-3-methyl-1-benzylpyrrolidin-3-yl]ethyl}acetamide] yielded an IC50 (recombinant human PDE4) of 14700 nM.

With `COc1ccc([C@@H]2CN(Cc3ccccc3)C[C@@]2(C)C(C)NC(C)=O)cc1OC1CCCC1` (stereo partly drawn) [Example 13, N-{1-[(3S,4S)-4-(3-Cyclopentyloxy-4-methoxyphenyl)-3-methyl-1-benzylpyrrolidin-3-yl]ethyl}acetamide] the IC50 (recombinant human PDE4) was 2440 nM.

`COC(=O)N1C[C@@H](c2ccc(OC)c(OC3CCCC3)c2)[C@](C)(C(C)NC(C)=O)C1` (stereo partly drawn) [Example 14, 3-(S)-(1-Acetylaminoethyl)-4-(S)-(3-cyclopentyloxy-4-methoxyphenyl)-3-methylpyrrolidine-1-carboxic Acid Methyl Ester] showed an EC50 [1] of 598 nM.

In the case of `COc1ccc([C@@H]2CN(Cc3ccccc3)C[C@@]2(C)C(C)NS(=O)(=O)c2ccccc2)cc1OC1CCCC1` (stereo partly drawn) [Example 15, {1-[(3S,4S)-4-(3-Cyclopentyloxy-4-methoxyphenyl)-3-methyl-1-benzylpyrrolidin-3-yl]ethyl}-(phenylsulfonyl)amine], the IC50 (recombinant human PDE4) is reported as 8970 nM.

With `COc1ccc(C2CN(Cc3ccccc3)C[C@@]2(C)C(C)NS(=O)(=O)c2ccccc2)cc1OC1CCCC1` (stereo partly drawn) [Example 16, {1-[(3S,4S)-4-(3-cyclopentyloxy-4-methoxyphenyl)-3-methyl-1-benzylpyrrolidin-3-yl]ethyl}-(phenylsufonyl)amine] the IC50 (recombinant human PDE4) was 9080 nM.

`COc1ccc([C@@H]2CN(Cc3ccccc3)C[C@@]2(C)C(C)NS(C)(=O)=O)cc1OC1CCCC1` (stereo partly drawn) [Example 17, {1-[(3S,4S)-4-(3-Cyclopentyloxy-4-methoxyphenyl)-3-methyl-1-benzylpyrrolidin-3-yl]ethyl}-(methylsulfonyl)amine] showed an IC50 (recombinant human PDE4) of 8660 nM.

For `COc1ccc([C@@H]2CN(Cc3ccccc3)C[C@@]2(C)C(C)NS(C)(=O)=O)cc1OC1CCCC1` (stereo partly drawn) [Example 18, {1-[(3S,4S)-4-(3-Cyclopentyloxy-4-methoxyphenyl)-3-methyl-1-benzylpyrrolidin-3-yl]ethyl}-(methylsulfonyl)amine], the IC50 (recombinant human PDE4) was 7390 nM.

`COC(=O)N1C[C@@H](c2ccc(OC)c(OC3CCCC3)c2)[C@](C)(CNC(=O)OC(C)(C)C)C1` [Example 21] was tested, and the IC50 (recombinant human PDE4) was 2200 nM.

Compound `COc1ccc(C2CN(Cc3ccccc3)C[C@]2(C)CN(C)C)cc1OC1CCCC1` (stereo partly drawn) [Example 22] has an IC50 (recombinant human PDE4) of 5890 nM.

Work on `CNC[C@]1(C)CN(Cc2ccccc2)CC1c1ccc(OC)c(OC2CCCC2)c1` (stereo partly drawn) [Example 23] yielded an IC50 (recombinant human PDE4) of 7550 nM.

In the case of `COC(=O)N1C[C@@H](c2ccc(OC)c(OC3Cc4ccccc4C3)c2)[C@](C)(CN)C1` [Example 24], the EC50 [1] is reported as 76.5 nM and the IC50 (recombinant human PDE4) is reported as 22.9 nM.

`COC(=O)N1C[C@@H](c2ccc(OC)c(OCC3CC3)c2)[C@](C)(CN)C1` [Example 25] gave an EC50 [1] of 85.5 nM and an IC50 (recombinant human PDE4) of 53 nM.

`COc1ccc([C@@H]2CN(C(=O)C(C)(C)O)C[C@@]2(C)CN)cc1OCC1CC1` [Example 26] was tested, and the EC50 [1] was 450 nM and the IC50 (recombinant human PDE4) was 235 nM.

`COc1ccc([C@@H]2CN(C(=O)CO)C[C@@]2(C)CN)cc1OCC1CC1` [Example 27] gave an EC50 [1] of 816 nM and an IC50 (recombinant human PDE4) of 479 nM.

`CCNC[C@]1(C)CN(C(=O)OC)C[C@H]1c1ccc(OC)c(OC2Cc3ccccc3C2)c1` [Example 28] was tested, and the EC50 [1] was 1390 nM and the IC50 (recombinant human PDE4) was 591 nM.
